Source: ChEMBL document CHEMBL1201861, “Genomics of Drug Sensitity in Cancer screening data, Wellcome Trust Sanger Institute”

Legend:
Assay in all cases: cells
[1] = system: LB2241-RCC; type: functional, cell-based, Homo sapiens; conditions: Homo sapiens, LB2241-RCC;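 further: cell viability assay measuring how strongly the cultured human renal carcinoma line is prevented from growing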
Description: SANGER: Inhibition of human LB2241-RCC cell growth in a cell viability assay.

[2] = system: GAK; type: functional, cell-based, Homo sapiens; conditions: Homo sapiens, GAK;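 further: cell growth inhibition read out by a cell viability assay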
Description: SANGER: Inhibition of human GAK cell growth in a cell viability assay.

[3] = system: MV4-11; type: functional, cell-based, MV-4-11; conditions: Homo sapiens;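 further: cell viability readout measuring growth inhibition of human MV-4-11 cells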
Description: SANGER: Inhibition of human MV-4-11 cell growth in a cell viability assay.

[4] = system: HCE-4; type: functional, cell-based, Homo sapiens; conditions: Homo sapiens, HCE-4;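 further: cell viability assay measuring inhibition of growth in the human HCE-4 cell line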
Description: SANGER: Inhibition of human HCE-4 cell growth in a cell viability assay.

[5] = system: NCI-H1770; type: functional, cell-based; conditions: Homo sapiens;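 further: growth inhibition of NCI-H1770 cells determined with a viability readout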
Description: SANGER: Inhibition of human NCI-H1770 cell growth in a cell viability assay.

[6] = system: KYSE-410; type: functional, cell-based, Homo sapiens; conditions: Homo sapiens, KYSE-410;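 further: growth inhibition of KYSE-410 cells, measured through a cell viability readout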
Description: SANGER: Inhibition of human KYSE-410 cell growth in a cell viability assay.

[7] = system: YAPC; type: functional, cell-based, Homo sapiens; conditions: Homo sapiens, YAPC;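 further: growth inhibition of YAPC cells, measured with a cell viability assay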
Description: SANGER: Inhibition of human YAPC cell growth in a cell viability assay.

[8] = system: SH-4; type: functional, cell-based, Homo sapiens; conditions: Homo sapiens, SH-4;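 further: growth inhibition of SH-4 cells, read out with a cell viability assay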
Description: SANGER: Inhibition of human SH-4 cell growth in a cell viability assay.

[9] = system: DK-MG; type: functional, cell-based, Homo sapiens; conditions: Homo sapiens, DK-MG;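 further: growth inhibition of DK-MG cells, read out with a cell viability assay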
Description: SANGER: Inhibition of human DK-MG cell growth in a cell viability assay.

[10] = system: MDA-MB-453; type: functional, cell-based, Homo sapiens; conditions: Homo sapiens, MDA-MB-453
Description: SANGER: Inhibition of human MDA-MB-453 cell growth in a cell viability assay.

[11] = system: ChaGo-K-1; type: functional, cell-based; conditions: Homo sapiens;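 further: growth inhibition of ChaGo-K-1 cells, read out with a cell viability assay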
Description: SANGER: Inhibition of human ChaGo-K-1 cell growth in a cell viability assay.

[12] = system: NCI-H1155; type: functional, cell-based; conditions: Homo sapiens;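 further: cell growth inhibition measured by a viability assay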
Description: SANGER: Inhibition of human NCI-H1155 cell growth in a cell viability assay.

[13] = system: NCI-H1648; type: functional, cell-based, Homo sapiens; conditions: Homo sapiens, NCI-H1648;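 further: cell viability assay measuring inhibition of NCI-H1648 cell growth, from the Sanger screening data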
Description: SANGER: Inhibition of human NCI-H1648 cell growth in a cell viability assay.

[14] = system: J82; type: functional, cell-based; conditions: Homo sapiens;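 further: growth inhibition of J82 cells, read out with a cell viability assay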
Description: SANGER: Inhibition of human J82 cell growth in a cell viability assay.

[15] = system: GB-1; type: functional, cell-based, Homo sapiens; conditions: Homo sapiens, GB-1;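 further: growth of GB-1 cells judged by a viability assay, IC50 marks the concentration inhibiting growth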
Description: SANGER: Inhibition of human GB-1 cell growth in a cell viability assay.

[16] = system: SK-MEL-1; type: functional, cell-based; conditions: Homo sapiens;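 further: growth inhibition of human SK-MEL-1 cells, read out by a cell viability assay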
Description: SANGER: Inhibition of human SK-MEL-1 cell growth in a cell viability assay.

[17] = system: KM-H2; type: functional, cell-based; conditions: Homo sapiens;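 further: growth inhibition of KM-H2 cells, read out by a cell viability assay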
Description: SANGER: Inhibition of human KM-H2 cell growth in a cell viability assay.

[18] = system: GCT; type: functional, cell-based, Homo sapiens; conditions: Homo sapiens, GCT;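 further: GCT cell line proliferation inhibition, read out with a cell viability assay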
Description: SANGER: Inhibition of human GCT cell growth in a cell viability assay.

[19] = system: A2780; type: functional, cell-based, Homo sapiens; conditions: Homo sapiens, A2780;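 further: growth inhibition of A2780 cells, read out with a cell viability assay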
Description: SANGER: Inhibition of human A2780 cell growth in a cell viability assay.

[20] = system: SW1417; type: functional, cell-based, Homo sapiens; conditions: Homo sapiens, SW1417;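 further: growth inhibition of human SW1417 cells, read out with a cell viability assay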
Description: SANGER: Inhibition of human SW1417 cell growth in a cell viability assay.

[21] = system: SCH; type: functional, cell-based, Homo sapiens; conditions: Homo sapiens, SCH;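 further: growth inhibition of human SCH cells, read out in a cell viability assay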
Description: SANGER: Inhibition of human SCH cell growth in a cell viability assay.

[22] = system: GAMG; type: functional, cell-based, Homo sapiens; conditions: Homo sapiens, GAMG;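 further: cell growth inhibition measured by a viability assay in the GAMG human cell line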
Description: SANGER: Inhibition of human GAMG cell growth in a cell viability assay.

[23] = system: LOX IMVI; type: functional, cell-based; conditions: Homo sapiens
Description: SANGER: Inhibition of human LOXIMVI cell growth in a cell viability assay.

[24] = system: A-431; type: functional, cell-based, Homo sapiens; conditions: Homo sapiens, A-431;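 further: growth inhibition of A-431 cells, determined with a cell viability read-out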
Description: SANGER: Inhibition of human A431 cell growth in a cell viability assay.

[25] = system: LB373-MEL-D; type: functional, cell-based, Homo sapiens; conditions: Homo sapiens, LB373-MEL-D;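 further: growth inhibition of the cell line, read out in a cell viability assay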
Description: SANGER: Inhibition of human LB373-MEL-D cell growth in a cell viability assay.

[26] = system: TE-10; type: functional, cell-based, Homo sapiens; conditions: Homo sapiens, TE-10;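 further: growth inhibition of TE-10 cells, measured by a cell viability assay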
Description: SANGER: Inhibition of human TE-10 cell growth in a cell viability assay.

[27] = system: JVM-3; type: functional, cell-based; conditions: Homo sapiens;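 further: growth inhibition of human JVM-3 cells, read out with a cell viability assay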
Description: SANGER: Inhibition of human JVM-3 cell growth in a cell viability assay.

[28] = system: P30-OHK; type: functional, cell-based; conditions: Homo sapiens;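 further: growth inhibition of the P30-OHK cell line, read out with a cell viability assay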
Description: SANGER: Inhibition of human P30-OHK cell growth in a cell viability assay.

[29] = system: ACN; type: functional, cell-based, Homo sapiens; conditions: Homo sapiens, ACN;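 further: growth inhibition of the human ACN cell line, read out via cell viability testing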
Description: SANGER: Inhibition of human ACN cell growth in a cell viability assay.

[30] = system: OAW-42; type: functional, cell-based, Homo sapiens; conditions: Homo sapiens, OAW-42;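 further: growth inhibition of OAW-42 cells, read out with a cell viability assay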
Description: SANGER: Inhibition of human OAW-42 cell growth in a cell viability assay.

[31] = system: SF-295; type: functional, cell-based, Homo sapiens; conditions: Homo sapiens, SF-295; read-out: IC50;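 further: growth inhibition of SF-295 cells, read out with a cell viability assay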
Description: SANGER: Inhibition of human SF295 cell growth in a cell viability assay.

[32] = system: DJM-1; type: functional, cell-based, Homo sapiens; conditions: Homo sapiens, DJM-1;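 further: growth inhibition of human DJM-1 cells, read out by a cell viability assay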
Description: SANGER: Inhibition of human DJM-1 cell growth in a cell viability assay.

[33] = system: KARPAS-299; type: functional, cell-based; conditions: Homo sapiens
Description: SANGER: Inhibition of human KARPAS-299 cell growth in a cell viability assay.

[34] = system: HOS; type: functional, cell-based, Homo sapiens; conditions: Homo sapiens, HOS;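 further: growth inhibition of human HOS cells, read out with a cell viability assay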
Description: SANGER: Inhibition of human HOS cell growth in a cell viability assay.

[35] = system: NB12; type: functional, cell-based, Homo sapiens; conditions: Homo sapiens, NB12;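 further: growth inhibition of human NB12 cells, read out by a cell viability assay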
Description: SANGER: Inhibition of human NB12 cell growth in a cell viability assay.

[36] = system: RS4-11; type: functional, cell-based; conditions: Homo sapiens;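 further: growth inhibition of RS4-11 cells, read out by a cell viability assay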
Description: SANGER: Inhibition of human RS4-11 cell growth in a cell viability assay.

[37] = system: CAL-72; type: functional, cell-based, Homo sapiens; conditions: Homo sapiens, CAL-72;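 further: cell viability assay measuring inhibition of proliferation in the CAL-72 cell line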
Description: SANGER: Inhibition of human CAL-72 cell growth in a cell viability assay.

[38] = system: KGN; type: functional, cell-based, Homo sapiens; conditions: Homo sapiens, KGN;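 further: growth inhibition of KGN cells, read out with a cell viability assay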
Description: SANGER: Inhibition of human KGN cell growth in a cell viability assay.

[39] = system: MMAC-SF; type: functional, cell-based, Homo sapiens; conditions: Homo sapiens, MMAC-SF;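 further: growth inhibition of human MMAC-SF cells, read out with a cell viability assay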
Description: SANGER: Inhibition of human MMAC-SF cell growth in a cell viability assay.

[40] = system: DBTRG-05MG; type: functional, cell-based, Homo sapiens; conditions: Homo sapiens, DBTRG-05MG;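 further: cell viability assay measuring growth inhibition of human DBTRG-05MG cells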
Description: SANGER: Inhibition of human DBTRG-05MG cell growth in a cell viability assay.

[41] = system: Becker; type: functional, cell-based, Homo sapiens; conditions: Homo sapiens, Becker;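 further: growth inhibition of Becker cells, read out with a cell viability assay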
Description: SANGER: Inhibition of human Becker cell growth in a cell viability assay.

[42] = system: HuP-T4; type: functional, cell-based, Homo sapiens; conditions: Homo sapiens, HuP-T4;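 further: cell viability assay measuring how much HuP-T4 cell growth is inhibited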
Description: SANGER: Inhibition of human HuP-T4 cell growth in a cell viability assay.

[43] = system: LCLC-97TM1; type: functional, cell-based, Homo sapiens; conditions: Homo sapiens, LCLC-97TM1;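 further: cell viability assay measuring growth inhibition of human LCLC-97TM1 cells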
Description: SANGER: Inhibition of human LCLC-97TM1 cell growth in a cell viability assay.

[44] = system: L-363; type: functional, cell-based; conditions: Homo sapiens
Description: SANGER: Inhibition of human L-363 cell growth in a cell viability assay.

[45] = system: MFM-223; type: functional, cell-based, Homo sapiens; conditions: Homo sapiens, MFM-223
Description: SANGER: Inhibition of human MFM-223 cell growth in a cell viability assay.

[46] = system: NCI-H2087; type: functional, cell-based, Homo sapiens; conditions: Homo sapiens, NCI-H2087;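 further: growth inhibition determined with a cell viability readout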
Description: SANGER: Inhibition of human NCI-H2087 cell growth in a cell viability assay.

[47] = system: CAL-62; type: functional, cell-based, Homo sapiens; conditions: Homo sapiens, CAL-62;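 further: growth inhibition of CAL-62 cells, read out with a cell viability assay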
Description: SANGER: Inhibition of human CAL-62 cell growth in a cell viability assay.

[48] = system: D-247MG; type: functional, cell-based, Homo sapiens; conditions: Homo sapiens, D-247MG
Description: SANGER: Inhibition of human D-247MG cell growth in a cell viability assay.

[49] = system: NCI-H526; type: functional, cell-based; conditions: Homo sapiens;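 further: growth inhibition of the human NCI-H526 cell line, measured by a cell viability assay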
Description: SANGER: Inhibition of human NCI-H526 cell growth in a cell viability assay.

[50] = system: NCI-H209; type: functional, cell-based; conditions: Homo sapiens;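 further: growth inhibition of human NCI-H209 cells, measured by a cell viability assay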
Description: SANGER: Inhibition of human NCI-H209 cell growth in a cell viability assay.

[51] = system: BV-173; type: functional, cell-based; conditions: Homo sapiens
Description: SANGER: Inhibition of human BV-173 cell growth in a cell viability assay.

[52] = system: ML-2; type: functional, cell-based; conditions: Homo sapiens;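 further: growth inhibition of ML-2 cells, measured with a cell viability readout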
Description: SANGER: Inhibition of human ML-2 cell growth in a cell viability assay.

Measured: IC50

O=c1cc(-c2cccc3c2Sc2ccccc2S3)oc(N2CCOCC2)c1 [KU-55933]
5.48 µM: [37]
not listed: [50] | [51] | [52]
> 10 µM: all other assays above

CCOc1nc(NC(=O)Cc2cc(OC)ccc2OC)cc(N)c1C#N
6.58 µM: [1]
> 10 µM: all other assays above

C=CCNC1=C2C[C@@H](C)C[C@H](OC)[C@H](O)[C@@H](C)/C=C(\C)[C@H](OC(N)=O)[C@@H](OC)/C=C\C=C(/C)C(=O)NC(=CC1=O)C2=O [TANESPIMYCIN]
0.162 µM: [47]
0.262 µM: [12]
0.114 µM: [8]
0.372 µM: [9]
0.581 µM: [40]
0.136 µM: [2]
0.231 µM: [52]
0.474 µM: [4]
0.0587 µM: [23]
0.0343 µM: [22]
0.638 µM: [27]
0.174 µM: [46]
0.672 µM: [10]
0.451 µM: [7]
0.068 µM: [3]
0.273 µM: [14]
0.0873 µM: [43]
0.0389 µM: [41]
0.317 µM: [11]
0.0416 µM: [29]
0.414 µM: [26]
0.129 µM: [42]
0.101 µM: [1]
0.0253 µM: [19]
0.0645 µM: [31]
0.0477 µM: [6]
0.264 µM: [45]
0.152 µM: [13]
0.105 µM: [39]
0.687 µM: [51]
0.0821 µM: [24] | [44]
0.0945 µM: [48]
0.417 µM: [34]
> 1 µM: all other assays above
